Publication PMC11039317, “Acidity of persulfides and its modulation by the protein environments in sulfide quinone oxidoreductase and thiosulfate sulfurtransferase” (The Journal of Biological Chemistry, 2024)

What was measured:
Human SQOR [1] = target: T1, Human SQOR (Homo sapiens, UniProt Q9Y6N5); details: potassium phosphate, pH 7.4, 4 °C; cited from earlier work
T1 construct: made in house

TST persulfide = TST persulfide (Homo sapiens, UniProt Q16762)
Experimental: Stopped-flow kinetic studies were performed on the isolated half-reactions between TST persulfide and sulfur acceptors. Preformed stocks of TST persulfide were used to monitor its reaction with sulfite or cyanide at varying pH at 25 °C. The reactions were followed by the changes in the intrinsic fluorescence of TST, taking advantage of the higher fluorescence in the thiol versus the persulfidated state, as reported for the bovine enzyme ([37]).
TST persulfide was exposed to a pseudo-first order excess of sulfite (15 and 75 μM) or cyanide (25 and 100 μM), and the increases in the intrinsic fluorescence were recorded (Fig. 5, A and B). Single exponential functions were fitted to the time courses. The kobs values were divided by the sulfite or cyanide concentration and the second order rate constants, kpH, were determined at each pH.
The persulfidated TST was diluted in ultrapure water in one of the stopped-flow syringes (1.6–2.0 μM, ∼ 2 mM Tris) and mixed with sulfite (30 and 150 μM) or cyanide (50 and 200 μM) prepared in the other syringe in ACES/Tris/ethanolamine buffer 2× in a pH range of 5.60 to 10.38, at 25 °C. The final concentrations were halved as a consequence of the stopped-flow mixing. The increase in intrinsic fluorescence due to thiol formation was recorded during 0.025 to 10 s depending on the time course. The final pH of the reaction mixtures was measured.

Human SQOR [2] = target: T1, Human SQOR; format: biochemical
Experimental: The acidity of the persulfidated SQOR was evaluated by the pH-dependence of the steady-state rates. For enzymes that catalyze reactions with one substrate, the kinetic parameter kcat/Km (specificity constant) is an apparent second-order rate constant that reports on the properties of the free enzyme and the free substrate ([32]). kcat/Km can be calculated from the kinetic parameters kcat and Km obtained from typical Michaelis–Menten analysis (Equation 1). […]
SQOR uses three substrates: H2S, a sulfur acceptor (Acc^−), and CoQ (Fig. 1A). At saturating concentrations of H2S and CoQ, the kcat/Km^Acc- represents the apparent rate constant for the reaction between the sulfur acceptor and the Cys379SSH of the bis-persulfidated SQOR, and its pH-dependency reports on the pKa of both free species. Although the pH dependence of human SQOR activity has been reported ([25]), the pH dependence of kcat/Km is unavailable. The steady-state rate of SQOR was determined by monitoring the reduction of coenzyme Q1 (CoQ1) at 278 nm at varying pH at 25 °C. […]. Therefore, in the experiments with cyanide, the reactions were started with cyanide instead of SQOR so that the contribution of SQOR with H2S alone could be subtracted.
In experiments with sulfite, steady-state time courses with varying concentrations of sulfite (0.01–8 mM) were recorded, and linear functions were fitted to the first 15 to 40 s following SQOR addition (Fig. 3A). The slope before SQOR addition was subtracted to correct for the background nonenzymatic reduction of CoQ1, which was minimal. From the hyperbolic fit of the activity versus sulfite concentration plot (Fig. 3B), the kinetic parameters kcat^sulfite and Km^sulfite were obtained, and the kcat/Km^sulfite for each pH were calculated. As expected, when the kcat/Km^sulfite were plotted against pH, a bell-shaped profile was obtained (Fig. 3C), consistent with a reaction between a deprotonated species and a protonated one. An equation with two pKa was fitted to the data (Equation 3), assuming that deprotonated sulfite and protonated SQOR persulfide were the reacting species. […]. […]
The steady-state rates were obtained from linear fits to the data during the first 4 to 20 s following cyanide addition, and the slopes before cyanide addition were subtracted. The kcat/Km^cyanide at each pH was calculated according to Equation 2 using the enzyme (50 nM) and cyanide (90 μM) initial concentrations. […]
Human SQOR was expressed and purified as reported previously ([24], [25]). SQOR concentration was determined from the FAD absorbance at 450 nm, using ε = 11,500 M^−1 cm^−1 ([25]). […]
The activity of SQOR was measured at different pHs in a temperature-controlled spectrophotometer (Shimadzu UV-2600 or UV-1900i). […]

[3] = reported value; cited from earlier work
Human TST = Human TST (Homo sapiens, UniProt Q16762); details: pH 7.03
Human TST, sequence (Q16762 whole entry): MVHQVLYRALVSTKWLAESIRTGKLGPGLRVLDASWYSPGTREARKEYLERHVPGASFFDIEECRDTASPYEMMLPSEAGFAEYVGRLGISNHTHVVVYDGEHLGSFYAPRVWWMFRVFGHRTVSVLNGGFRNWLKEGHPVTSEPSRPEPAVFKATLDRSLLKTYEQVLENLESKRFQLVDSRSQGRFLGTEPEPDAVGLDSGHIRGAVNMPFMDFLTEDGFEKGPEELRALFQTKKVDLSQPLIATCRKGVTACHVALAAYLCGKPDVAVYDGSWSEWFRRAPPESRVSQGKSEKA
Experimental: The activity of TST was measured at different pH values and 25 °C by the steady-state rate of thiocyanate formation. […] After 30 to 90 s, the reactions were stopped by removing 305 μl aliquots and mixing them with 20 μl of 38% formaldehyde (Biopack) and 25 μl of 140 mM FeCl3·6H2O (Sigma-Aldrich) diluted in 32.5% HNO3 (Dorwil). Absorbances at 460 nm (Varian Cary 60, Agilent) were recorded immediately and interpolated into a 0 to 30 μM thiocyanate calibration curve. The thiocyanate standards were prepared daily in ACES/Tris/ethanolamine buffer, pH 7.8, and underwent the same procedures as the samples ([1]).
After 220 s, 5 μl of 5 M NaOH were added, changing the pH to 8.5. The concentrations of thiocyanate produced at 252 and 310 s were measured as described.

[4] = tested on: human 3-mercaptopyruvate sulfurtransferase; parameters: method as in earlier work; details: cited from earlier work

T1 sequence (Q9Y6N5 whole entry): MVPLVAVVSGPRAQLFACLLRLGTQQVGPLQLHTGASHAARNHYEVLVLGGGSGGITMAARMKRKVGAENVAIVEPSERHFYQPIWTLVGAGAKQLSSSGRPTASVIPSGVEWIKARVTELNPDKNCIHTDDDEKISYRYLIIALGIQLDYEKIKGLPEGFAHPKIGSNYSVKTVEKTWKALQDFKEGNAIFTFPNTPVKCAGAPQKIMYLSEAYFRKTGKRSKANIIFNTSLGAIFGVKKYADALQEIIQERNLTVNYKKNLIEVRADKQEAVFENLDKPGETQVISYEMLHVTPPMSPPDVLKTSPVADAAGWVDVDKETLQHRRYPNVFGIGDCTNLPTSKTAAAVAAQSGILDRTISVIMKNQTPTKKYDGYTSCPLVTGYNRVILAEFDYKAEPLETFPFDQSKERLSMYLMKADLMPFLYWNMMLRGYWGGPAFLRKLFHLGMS
TST persulfide, sequence (Q16762 whole entry): as the sequence (Q16762 whole entry) above

## O=S(O)O [sulfite]
Human SQOR [1]
  second-order rate constant between the enzyme CT complex and sulfite: 390000 M⁻¹ s⁻¹
TST persulfide
  pKa of the deprotonated species (sulfite): 6.89 ± 0.09
Human SQOR [2]; acetic/MES/Tris buffer containing 120 mM NaCl, pH 7.17, read-out: apparent Km^sulfite
  Km: 2400 ± 200 µM
Human SQOR [2]; fit of kcat/Km^sulfite of SQOR versus pH, 25 °C
  pKa of the deprotonated species (sulfite): 6.8 ± 0.5
[3]
  pKa: 6.91

B1: TST (protein, UniProt Q16762 2-297, looked up)
Thiosulfate sulfurtransferase: VHQVLYRALVSTKWLAESIRTGKLGPGLRVLDASWYSPGTREARKEYLERHVPGASFFDIEECRDTASPYEMMLPSEAGFAEYVGRLGISNHTHVVVYDGEHLGSFYAPRVWWMFRVFGHRTVSVLNGGFRNWLKEGHPVTSEPSRPEPAVFKATLDRSLLKTYEQVLENLESKRFQLVDSRSQGRFLGTEPEPDAVGLDSGHIRGAVNMPFMDFLTEDGFEKGPEELRALFQTKKVDLSQPLIATCRKGVTACHVALAAYLCGKPDVAVYDGSWSEWFRRAPPESRVSQGKSEKA
Human TST
  apparent pKa of steady-state activity: 8.47 ± 0.06

B2: human 3-mercaptopyruvate sulfurtransferase: sulfurtransferase enzyme, literature thiol pKa (protein, UniProt P25325 2-297, looked up)
3-mercaptopyruvate …: ASPQLCRALVSAQWVAEALRAPRAGQPLQLLDASWYLPKLGRDARREFEERHIPGAAFFDIDQCSDRTSPYDHMLPGAEHFAEYAGRLGVGAATHVVIYDASDQGLYSAPRVWWMFRAFGHHAVSLLDGGLRHWLRQNLPLSSGKSQPAPAEFRAQLDPAFIKTYEDIKENLESRRFQVVDSRATGRFRGTEPEPRDGIEPGHIPGTVNIPFTDFLSQEGLEKSPEEIRHLFQEKKVDLSKPLVATCGSGVTACHVALGAYLCGKPDVPIYDGSWVEWYMRARPEDVISEGRGKTH
[4]
  pKa of the thiol: 5.2
